According to paper PMC10599993, “The PTPN2/PTPN1 inhibitor ABBV-CLS-484 unleashes potent anti-tumour immunity” (Nature, 2023):

Legend:
Experiment in all cases: biochemical
Parameters in all cases: Safety pharmacology off-target panel at Eurofins, radioligand binding with agonist or antagonist radioligand (Supplementary Table 2)
A2A (h) [1] = biological target: T1, A2A (h) (Homo sapiens, UniProt P29274); conditions: agonist radioligand
T1 construct: gene ADORA2A
Method: (§1) Wide-range phosphatase, kinase and preclinical safety pharmacology off-target activity screens were conducted at Eurofins (Extended Data Table 5 and Supplementary Tables 1 and 2). A small phosphatase panel was developed at AbbVie to assess IC50 values on select phosphatases. The following enzymes used in the phosphatase selectivity panel were purchased from Eurofins: PTPN1 (PTP1B; 14–621), PTPN2 (TC-PTP; 14–646), PTPN9 (14–592), SHP1 (14–591) and SHP2 (14–622). The catalytic activity of the phosphatase was monitored using the small-molecule substrate DiFMUP (ThermoFisher) in a fluorescence assay format. In brief, the phosphatase reactions were performed at room temperature in the following assay buffer: 50 mM HEPES, pH 7.2, 100 mM NaCl, 1 mM EDTA, 0.005% Tween-20 and 5 mM TCEP. Each phosphatase was incubated with increasing concentrations of AC484 for 5 min, after which the substrate DiFMUP was added and incubated at 25 °C for 30 min. The final concentration of the enzyme and substrate was maintained at 0.5 nM and 5 μM, respectively, in all the assays. The reaction was then quenched by the addition of a 100 μM solution of bpV(Phen) (Enzo Life Sciences). The fluorescence signal was monitored using an Envision microplate reader (Perkin-Elmer) using excitation and emission wavelengths of 340 nm and 450 nm, respectively. The dose–response curves for the inhibitors were analysed using normalized IC50 regression curve fitting with control-based normalization. Supplementary file 41586_2023_6575_MOESM4_ESM.xlsx: Supplementary Table 2 AC484 receptor selectivity screen.

d (DOP) = biological target: T2, d (DOP) (Homo sapiens, UniProt P41143); conditions: agonist radioligand
T2 construct: gene OPRD1; DOP
T2 sequence (P41143 whole entry): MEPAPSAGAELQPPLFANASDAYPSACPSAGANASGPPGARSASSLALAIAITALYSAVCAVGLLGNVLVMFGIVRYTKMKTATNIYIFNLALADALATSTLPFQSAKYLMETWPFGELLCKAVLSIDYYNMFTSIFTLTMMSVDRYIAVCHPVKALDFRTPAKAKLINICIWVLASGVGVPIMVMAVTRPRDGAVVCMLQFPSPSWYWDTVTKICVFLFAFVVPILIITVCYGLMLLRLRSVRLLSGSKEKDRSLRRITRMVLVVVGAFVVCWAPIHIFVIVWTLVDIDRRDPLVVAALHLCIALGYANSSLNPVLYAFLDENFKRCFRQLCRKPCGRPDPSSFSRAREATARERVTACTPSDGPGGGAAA
Method: as §1

V1a = biological target: T3, V1a (Homo sapiens, UniProt P37288); conditions: agonist radioligand
T3 construct: gene AVPR1A
T3 sequence (P37288 whole entry): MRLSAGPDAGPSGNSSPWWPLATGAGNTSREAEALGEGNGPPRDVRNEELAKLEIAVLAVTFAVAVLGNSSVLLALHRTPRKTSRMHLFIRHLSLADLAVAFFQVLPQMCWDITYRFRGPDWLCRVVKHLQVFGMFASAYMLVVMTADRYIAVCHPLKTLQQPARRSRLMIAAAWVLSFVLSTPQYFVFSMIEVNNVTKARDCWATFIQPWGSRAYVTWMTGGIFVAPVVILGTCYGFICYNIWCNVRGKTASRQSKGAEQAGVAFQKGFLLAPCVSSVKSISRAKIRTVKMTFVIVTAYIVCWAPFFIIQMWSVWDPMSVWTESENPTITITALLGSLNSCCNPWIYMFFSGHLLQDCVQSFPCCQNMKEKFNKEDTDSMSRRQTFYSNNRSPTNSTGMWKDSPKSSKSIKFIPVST
Method: as §1

Estrogen ER alpha = biological target: T4, Estrogen ER alpha (Homo sapiens, UniProt P03372); conditions: agonist radioligand
T4 construct: gene ESR1
Method: as §1

M3 = biological target: T5, M3 (Homo sapiens, UniProt P20309); conditions: antagonist radioligand
T5 construct: gene CHRM3
T5 sequence (P20309 whole entry): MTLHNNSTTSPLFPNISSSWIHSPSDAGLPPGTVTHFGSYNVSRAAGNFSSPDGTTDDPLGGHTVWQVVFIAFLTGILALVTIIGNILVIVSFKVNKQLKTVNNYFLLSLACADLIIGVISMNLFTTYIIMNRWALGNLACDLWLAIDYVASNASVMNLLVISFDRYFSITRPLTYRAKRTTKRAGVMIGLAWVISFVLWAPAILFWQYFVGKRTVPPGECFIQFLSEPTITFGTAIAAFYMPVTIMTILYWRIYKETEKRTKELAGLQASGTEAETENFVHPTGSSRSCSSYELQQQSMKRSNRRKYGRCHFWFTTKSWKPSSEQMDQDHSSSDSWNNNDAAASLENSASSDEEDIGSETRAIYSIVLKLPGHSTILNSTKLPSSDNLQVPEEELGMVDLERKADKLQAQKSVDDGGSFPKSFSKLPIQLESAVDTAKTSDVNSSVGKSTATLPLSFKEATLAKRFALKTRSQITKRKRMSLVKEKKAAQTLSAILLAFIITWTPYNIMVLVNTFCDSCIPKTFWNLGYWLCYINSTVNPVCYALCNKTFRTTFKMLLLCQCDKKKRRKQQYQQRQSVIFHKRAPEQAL
Method: as §1

5-HT3 = biological target: T6, 5-HT3 (Homo sapiens, UniProt P46098); conditions: antagonist radioligand
T6 construct: gene HTR3A
T6 sequence (P46098 whole entry): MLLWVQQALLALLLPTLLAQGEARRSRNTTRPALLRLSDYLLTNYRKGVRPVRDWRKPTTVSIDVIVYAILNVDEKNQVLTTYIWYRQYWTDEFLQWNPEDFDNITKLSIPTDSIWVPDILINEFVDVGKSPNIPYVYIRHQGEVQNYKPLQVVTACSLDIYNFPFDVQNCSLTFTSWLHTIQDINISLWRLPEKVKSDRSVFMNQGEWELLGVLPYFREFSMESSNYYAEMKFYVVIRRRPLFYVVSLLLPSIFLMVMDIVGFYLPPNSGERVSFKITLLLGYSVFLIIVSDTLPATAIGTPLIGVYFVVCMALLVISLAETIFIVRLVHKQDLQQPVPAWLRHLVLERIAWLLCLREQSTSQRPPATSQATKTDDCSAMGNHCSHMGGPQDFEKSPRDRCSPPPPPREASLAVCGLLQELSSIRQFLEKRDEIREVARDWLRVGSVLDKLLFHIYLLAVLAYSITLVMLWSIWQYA
Method: as §1

B2 = biological target: T7, B2 (Homo sapiens, UniProt P30411); conditions: agonist radioligand
T7 construct: gene BDKRB2
Method: as §1

AT1 (h) = biological target: T8, AT1 (h) (Homo sapiens, UniProt P30556); conditions: antagonist radioligand
T8 construct: gene AGTR1
T8 sequence (P30556 whole entry): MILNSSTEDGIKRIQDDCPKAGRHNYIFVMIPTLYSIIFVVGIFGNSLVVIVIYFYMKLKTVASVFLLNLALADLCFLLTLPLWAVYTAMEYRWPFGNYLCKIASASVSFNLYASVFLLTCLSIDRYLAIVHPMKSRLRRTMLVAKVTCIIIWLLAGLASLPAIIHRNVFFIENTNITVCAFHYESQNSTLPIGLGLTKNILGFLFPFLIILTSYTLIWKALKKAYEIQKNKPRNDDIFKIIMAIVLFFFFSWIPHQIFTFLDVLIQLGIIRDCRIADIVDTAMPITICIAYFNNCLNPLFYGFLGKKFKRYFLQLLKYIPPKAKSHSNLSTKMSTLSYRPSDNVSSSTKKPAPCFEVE
Method: as §1

[2] = biological target: T9, Norepinephrine transporter (Homo sapiens, UniProt P23975); conditions: antagonist radioligand
T9 construct: gene SLC6A2
Method: as §1

MT2 (ML1B) = biological target: T10, MT2 (ML1B) (Homo sapiens, UniProt P49286); conditions: agonist radioligand
T10 construct: gene MTNR1B; ML1B
T10 sequence (P49286 whole entry): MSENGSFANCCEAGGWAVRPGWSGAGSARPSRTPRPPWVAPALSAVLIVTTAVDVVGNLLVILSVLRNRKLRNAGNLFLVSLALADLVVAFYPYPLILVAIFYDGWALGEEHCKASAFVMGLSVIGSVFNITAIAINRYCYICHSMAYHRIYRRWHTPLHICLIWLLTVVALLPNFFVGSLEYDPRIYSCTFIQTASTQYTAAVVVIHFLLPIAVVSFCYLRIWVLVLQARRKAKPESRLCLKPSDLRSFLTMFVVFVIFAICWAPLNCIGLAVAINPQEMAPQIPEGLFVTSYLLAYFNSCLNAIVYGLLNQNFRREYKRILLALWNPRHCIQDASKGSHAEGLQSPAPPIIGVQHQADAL
Method: as §1

CB2 = biological target: T11, CB2 (Homo sapiens, UniProt P34972); conditions: agonist radioligand
T11 construct: gene CNR2
Method: as §1

A3 (h) = biological target: T12, A3 (h) (Homo sapiens, UniProt P0DMS8); conditions: agonist radioligand
T12 construct: gene ADORA3
Method: as §1

Dopamine transporter = biological target: T13, Dopamine transporter (Homo sapiens, UniProt Q01959); conditions: antagonist radioligand
T13 construct: gene SLC6A3
T13 sequence (Q01959 whole entry): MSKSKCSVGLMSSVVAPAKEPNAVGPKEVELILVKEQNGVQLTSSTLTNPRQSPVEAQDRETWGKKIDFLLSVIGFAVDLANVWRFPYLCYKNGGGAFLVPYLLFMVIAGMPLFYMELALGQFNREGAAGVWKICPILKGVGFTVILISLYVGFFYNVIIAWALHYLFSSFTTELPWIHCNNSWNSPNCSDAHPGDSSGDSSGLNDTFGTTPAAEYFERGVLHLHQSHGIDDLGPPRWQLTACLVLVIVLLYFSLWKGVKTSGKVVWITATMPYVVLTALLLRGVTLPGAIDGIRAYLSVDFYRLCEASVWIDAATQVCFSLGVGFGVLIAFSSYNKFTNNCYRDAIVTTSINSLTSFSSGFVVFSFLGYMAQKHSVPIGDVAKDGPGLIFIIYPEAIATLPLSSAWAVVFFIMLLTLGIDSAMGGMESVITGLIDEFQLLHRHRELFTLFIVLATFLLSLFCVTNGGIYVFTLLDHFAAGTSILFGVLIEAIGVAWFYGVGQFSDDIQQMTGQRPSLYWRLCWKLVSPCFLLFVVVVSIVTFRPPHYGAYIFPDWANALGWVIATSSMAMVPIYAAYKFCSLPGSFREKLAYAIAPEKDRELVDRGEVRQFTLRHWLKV
Method: as §1

a2A (h) [3] = biological target: T14, a2A (h) (Homo sapiens, UniProt P08913); conditions: antagonist radioligand
T14 construct: gene ADRA2A
T14 sequence (P08913 whole entry): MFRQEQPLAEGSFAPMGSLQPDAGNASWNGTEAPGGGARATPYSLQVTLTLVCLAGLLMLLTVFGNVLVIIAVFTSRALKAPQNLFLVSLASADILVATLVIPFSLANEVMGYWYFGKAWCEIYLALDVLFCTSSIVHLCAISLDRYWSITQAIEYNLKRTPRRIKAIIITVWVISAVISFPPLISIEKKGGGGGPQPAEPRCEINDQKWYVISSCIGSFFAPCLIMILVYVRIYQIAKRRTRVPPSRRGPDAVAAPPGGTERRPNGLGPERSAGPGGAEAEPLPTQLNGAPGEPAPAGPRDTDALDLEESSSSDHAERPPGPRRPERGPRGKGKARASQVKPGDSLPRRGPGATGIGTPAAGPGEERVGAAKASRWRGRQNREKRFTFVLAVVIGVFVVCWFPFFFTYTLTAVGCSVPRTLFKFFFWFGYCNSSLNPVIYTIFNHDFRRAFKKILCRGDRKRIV
Method: as §1

CB1 = biological target: T15, CB1 (Homo sapiens, UniProt P21554); conditions: agonist radioligand
T15 construct: gene CNR1
Method: as §1

5-HT2C = biological target: T16, 5-HT2C (Homo sapiens, UniProt P28335); conditions: antagonist radioligand
T16 construct: gene HTR2C
Method: as §1

m (MOP) = biological target: T17, m (MOP) (Homo sapiens, UniProt P35372); conditions: agonist radioligand
T17 construct: gene OPRM1; MOP
T17 sequence (P35372 whole entry): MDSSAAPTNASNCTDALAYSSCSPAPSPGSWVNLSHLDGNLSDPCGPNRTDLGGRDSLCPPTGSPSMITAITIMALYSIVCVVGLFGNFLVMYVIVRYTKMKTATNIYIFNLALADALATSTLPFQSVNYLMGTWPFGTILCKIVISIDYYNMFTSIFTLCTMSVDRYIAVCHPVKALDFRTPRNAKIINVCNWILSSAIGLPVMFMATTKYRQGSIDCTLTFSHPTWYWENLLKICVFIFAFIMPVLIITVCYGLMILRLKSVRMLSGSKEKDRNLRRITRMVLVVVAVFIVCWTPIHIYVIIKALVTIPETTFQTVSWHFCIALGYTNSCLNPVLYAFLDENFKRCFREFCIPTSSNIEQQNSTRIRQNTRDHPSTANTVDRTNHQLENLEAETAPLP
Method: as §1

M1 = biological target: T18, M1 (Homo sapiens, UniProt P11229); conditions: antagonist radioligand
T18 construct: gene CHRM1
T18 sequence (P11229 whole entry): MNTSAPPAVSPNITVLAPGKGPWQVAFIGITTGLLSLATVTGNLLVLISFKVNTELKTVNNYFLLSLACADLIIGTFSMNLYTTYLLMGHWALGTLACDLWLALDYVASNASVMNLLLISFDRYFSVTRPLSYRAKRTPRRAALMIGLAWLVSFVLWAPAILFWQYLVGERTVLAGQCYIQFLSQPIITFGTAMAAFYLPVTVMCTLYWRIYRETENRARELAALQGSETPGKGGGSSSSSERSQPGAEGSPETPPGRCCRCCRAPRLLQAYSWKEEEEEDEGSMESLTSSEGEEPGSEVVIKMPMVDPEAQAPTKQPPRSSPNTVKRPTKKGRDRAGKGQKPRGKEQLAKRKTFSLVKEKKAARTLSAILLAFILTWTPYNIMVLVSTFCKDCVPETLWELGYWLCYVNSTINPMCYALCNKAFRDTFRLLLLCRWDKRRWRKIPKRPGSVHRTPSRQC
Method: as §1

NK2 = biological target: T19, NK2 (Homo sapiens, UniProt P21452); conditions: agonist radioligand
T19 construct: gene TACR2
Method: as §1

Measured: AC50

T1 sequence (P29274 whole entry): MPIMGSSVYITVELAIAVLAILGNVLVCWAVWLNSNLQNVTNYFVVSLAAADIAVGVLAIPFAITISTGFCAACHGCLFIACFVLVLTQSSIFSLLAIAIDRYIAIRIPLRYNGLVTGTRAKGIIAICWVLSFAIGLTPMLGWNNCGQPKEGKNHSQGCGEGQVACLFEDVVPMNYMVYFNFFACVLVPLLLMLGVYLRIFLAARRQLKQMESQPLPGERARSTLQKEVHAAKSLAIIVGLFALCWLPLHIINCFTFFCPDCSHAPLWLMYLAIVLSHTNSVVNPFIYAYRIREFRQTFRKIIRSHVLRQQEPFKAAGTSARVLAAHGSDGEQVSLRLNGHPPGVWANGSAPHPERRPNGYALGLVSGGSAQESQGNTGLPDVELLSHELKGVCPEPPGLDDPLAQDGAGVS

CC(C)CCN[C@@H]1CCc2cc(O)c(N3CC(=O)NS3(=O)=O)c(F)c2C1 [AC484, ABBV-CLS-484]
> 0.01 mM: all assays above
